Publication PMC2919490 (Journal of agricultural and food chemistry, 2010)
Like-named read-outs stand apart in the source and are kept apart here.

Columns and labels:
Caco-2 cells [1] = conditions: cited from earlier work
[2] = especially under light exposure; cited from earlier work
[3] = Stability of transport study solutions in HBSS at 37 °C; assay type: physicochemical; conditions: HBSS pH 6.8, 37 °C water bath, 0, 1, 2, 4 and 6 hour, UPLC-MS/MS
Caco-2 cell monolayer = assay type: in vitro ADME, human; conditions: for Pa-b as percent of control: pH 6.8, 37 °C
Caco-2 cells [4] = assay: Marker compounds hydrolysis and metabolism in Caco-2 transport study; assay type: in vitro ADME, human; conditions: Caco-2 transport studies; for glucuronidation and sulfation metabolites: UPLC-MS/MS, of marker compounds and their aglycone; for hydrolysis to aglycone: aglycone by UPLC-MS/MS
MRP2 = MRP2 (Homo sapiens, UniProt Q92887); assay: Caco-2 transport of isoquercitrin in the presence of MRP2 inhibitor MK 571; assay type: in vitro ADME
Chain of MRP2 (Q92887 whole entry): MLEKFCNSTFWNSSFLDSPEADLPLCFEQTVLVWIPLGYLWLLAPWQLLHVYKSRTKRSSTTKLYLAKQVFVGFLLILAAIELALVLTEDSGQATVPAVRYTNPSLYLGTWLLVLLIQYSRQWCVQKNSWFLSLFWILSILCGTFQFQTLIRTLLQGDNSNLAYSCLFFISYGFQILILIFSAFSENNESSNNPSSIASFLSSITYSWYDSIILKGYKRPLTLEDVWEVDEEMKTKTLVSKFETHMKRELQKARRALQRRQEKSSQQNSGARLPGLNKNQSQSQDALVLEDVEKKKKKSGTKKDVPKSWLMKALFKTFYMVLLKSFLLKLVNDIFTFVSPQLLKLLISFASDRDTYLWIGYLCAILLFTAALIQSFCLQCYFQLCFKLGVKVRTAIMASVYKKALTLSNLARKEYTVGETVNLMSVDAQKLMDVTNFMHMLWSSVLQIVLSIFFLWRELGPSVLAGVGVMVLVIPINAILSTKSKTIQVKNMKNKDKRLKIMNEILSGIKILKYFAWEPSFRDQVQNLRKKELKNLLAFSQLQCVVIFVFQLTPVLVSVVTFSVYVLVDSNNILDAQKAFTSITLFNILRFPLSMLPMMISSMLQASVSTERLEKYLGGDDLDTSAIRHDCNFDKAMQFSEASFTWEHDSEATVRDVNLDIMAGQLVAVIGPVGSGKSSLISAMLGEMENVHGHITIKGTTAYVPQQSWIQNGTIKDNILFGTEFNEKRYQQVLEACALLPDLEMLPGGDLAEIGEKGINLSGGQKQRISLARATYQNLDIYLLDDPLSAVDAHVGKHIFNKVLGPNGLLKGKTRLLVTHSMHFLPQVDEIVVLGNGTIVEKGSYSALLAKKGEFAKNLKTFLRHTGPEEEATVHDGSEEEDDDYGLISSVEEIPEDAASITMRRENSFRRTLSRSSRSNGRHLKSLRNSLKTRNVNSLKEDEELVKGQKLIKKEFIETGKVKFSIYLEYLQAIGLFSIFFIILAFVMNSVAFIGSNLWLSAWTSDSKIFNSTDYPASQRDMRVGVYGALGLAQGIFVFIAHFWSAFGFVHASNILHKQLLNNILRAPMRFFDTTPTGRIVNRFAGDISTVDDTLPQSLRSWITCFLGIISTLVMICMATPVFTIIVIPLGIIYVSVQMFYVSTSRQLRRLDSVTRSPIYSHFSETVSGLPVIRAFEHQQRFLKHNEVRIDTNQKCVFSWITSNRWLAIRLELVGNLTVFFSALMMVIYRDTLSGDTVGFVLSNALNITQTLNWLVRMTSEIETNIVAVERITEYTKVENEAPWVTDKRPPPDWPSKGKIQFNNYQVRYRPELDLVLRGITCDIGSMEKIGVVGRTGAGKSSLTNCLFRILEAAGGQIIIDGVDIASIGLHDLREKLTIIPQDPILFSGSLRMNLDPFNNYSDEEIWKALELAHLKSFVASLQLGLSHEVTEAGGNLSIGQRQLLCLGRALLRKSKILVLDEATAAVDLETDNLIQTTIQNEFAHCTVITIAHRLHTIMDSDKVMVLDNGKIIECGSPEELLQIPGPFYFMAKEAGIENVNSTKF

[5] = assay type: in vitro ADME, human; conditions: human, Caco-2, pH 6.8, efflux ratio (Pba/Pab), vectorial transport ratio
SGLT1 = assay: Caco-2 transport of isoquercitrin in the presence of phloridzin; assay type: in vitro ADME, human; conditions: pure isoquercitrin 10 μM, 50 μM phloridzin
[6] = in product 1 matrix, control pure compound 10 μM
[7] = in product 2 matrix, control pure compound 10 μM
[8] = isoquercitrin in product 2, 50 μM MK 571
[9] = isoquercitrin in product 4, 50 μM MK 571
[10] = pure isoquercitrin 10 μM, 50 μM MK 571 at apical side

With `COc1ccc([C@@H]2CC(=O)c3c(O)cc(O[C@@H]4O[C@H](CO[C@@H]5O[C@@H](C)[C@H](O)[C@@H](O)[C@H]5O)[C@@H](O)[C@H](O)[C@H]4O)cc3O2)cc1O` [hesperidin] as the compound, how does the “permeability (words)” value (Caco-2 cells [1]; HPLC-UV, 120 min transport) read?
Its value is “not permeable”.

For `Cc1cc(O)c2c(=O)c3c(O)cc(O)c4c5c(O)cc(O)c6c(=O)c7c(O)cc(C)c8c1c2c(c34)c(c78)c65` [hypericin], which “stability in aqueous solutions” value [2] is on record?
The value was “highly unstable”.

What does the source list for `O=c1c(O[C@@H]2O[C@H](CO)[C@H](O)[C@H](O)[C@H]2O)c(-c2ccc(O)c(O)c2)oc2cc(O)cc(O)c12` [hyperoside]?
stability in experimental solutions (relative peak area as a function of time) [3]: stable; Pa-b compared with control (Caco-2 cell monolayer; [6]): not altered; Pa-b as percent of control (Caco-2 cell monolayer; [7]): 54%; Pa-b as percent of control (Caco-2 cell monolayer; in product 4 matrix, control pure compound 10 μM): 46%; glucuronidation and sulfation metabolites (Caco-2 cells [4]): not detected; hydrolysis to aglycone (Caco-2 cells [4]): not hydrolyzed

For `O=c1c(O[C@@H]2O[C@H](CO)[C@@H](O)[C@H](O)[C@H]2O)c(-c2ccc(O)c(O)c2)oc2cc(O)cc(O)c12` [isoquercitrin], which “stability in experimental solutions (relative peak area as a function of time)” value [3] is on record?
Its value is “stable”.

What about the efflux ratio at 4 h (MRP2; human, Caco-2, with MK 571, 50 µM) of the same compound?
Its efflux ratio at 4 h is 0.4.

And the “Pa-b change with MK 571” value (MRP2; [8])?
The value was “didn't increase significantly”.

What about the “Pb-a reduction with MK 571” value (MRP2; [8]) of the same compound?
The value was 1.8 times.

And the “Pa-b increase with MK 571” value (MRP2; [9])?
Its value is 2.9 times.

What about the “Pb-a change with MK 571” value (MRP2; [9]) of the same compound?
The value was “didn't change”.

And the “Pb-a versus Pa-b” value (MRP2; [9])?
Its value is “not statistically different”.

What about the vectorial transport ratio (MRP2; pure isoquercitrin 10 μM, 50 μM MK 571) of the same compound?
The vectorial transport ratio was 1.

And the “Pa-b increase compared with control” value (MRP2; [10])?
The value was 3.2 times.

What about the “Pb-a decrease compared with control” value (MRP2; [10]) of the same compound?
Its value is 5.2 times.

What about the “Pb-a as percent of control” value (Caco-2 cell monolayer; [6]) of the same compound?
The value was 78%.

And the “Pb-a as percent of control” value (Caco-2 cell monolayer; [7])?
The value was 42%.

What about the efflux ratio at 4 h, 10 µM [5] of the same compound?
Its efflux ratio at 4 h, 10 µM is 7.13.

And the “glucuronidation and sulfation metabolites” value (Caco-2 cells [4])?
Its value is “not detected”.

And the hydrolysis to aglycone (Caco-2 cells [4])?
Its hydrolysis to aglycone is “not hydrolyzed”.

What about the “Pa-b increase compared to the control” value (SGLT1) of the same compound?
The value was 2.9 times.

What about the “difference between Pa-b and Pb-a” value (SGLT1) of the same compound?
The value was “diminished”.

With `C[C@H]1O[C@H](OC[C@H]2O[C@@H](Oc3c(-c4ccc(O)cc4)oc4cc(O)cc(O)c4c3=O)[C@H](O)[C@@H](O)[C@@H]2O)[C@@H](O)[C@@H](O)[C@@H]1O` [kaempferol-3-rutinoside] as the compound, how does the “efflux ratio (Pba/Pab)” value (Caco-2 cell monolayer; Caco-2, pH 6.8) read?
The value was 3.5.

And the vectorial transport ratio (Caco-2 cell monolayer; human, Caco-2, 4 h, 50 µM, pH 6.8)?
Its vectorial transport ratio is 0.16.

Which permeability (Caco-2 cells [1]; Caco-2) does the source give for `C[C@@H]1O[C@@H](O[C@H]2[C@H](Oc3cc(O)c4c(c3)O[C@H](c3ccc(O)cc3)CC4=O)O[C@H](CO)[C@@H](O)[C@@H]2O)[C@H](O)[C@H](O)[C@H]1O` [naringin] here?
The permeability was 0.08 ×10⁻⁶ cm/s.

And the “permeability (words)” value (Caco-2 cells [1]; Caco-2)?
The value was “not permeable”.

What does the source list for `C[C@@H]1O[C@@H](OC[C@H]2O[C@@H](Oc3c(-c4ccc(O)c(O)c4)oc4cc(O)cc(O)c4c3=O)[C@H](O)[C@@H](O)[C@@H]2O)[C@H](O)[C@H](O)[C@H]1O` [rutin]?
glucuronidation and sulfation metabolites (Caco-2 cells [4]): not detected; hydrolysis to aglycone (Caco-2 cells [4]): not hydrolyzed
